According to paper PMC9921851, “Synthesis and Preclinical Evaluation of Three Novel ^68Ga-Labeled Bispecific PSMA/FAP-Targeting Tracers for Prostate Cancer Imaging” (Molecules, 2023):
Values belong to the compound of their own block, whether it stands above or below them.

Columns and labels:
PSMA = target: T1, PSMA (Homo sapiens, UniProt Q04609); assay: In vitro PSMA competition binding assay ([^18F]DCFPyL displacement on LNCaP cells); conditions: radioligand [^18F]DCFPyL, n = 3
T1 construct: endogenous in cells; host or cells: LNCaP cells (ATCC via Cedarlane)
Experimental: The binding affinities of Ga-AV01017, Ga-AV01030, Ga-AV01038, Ga-HTK03041, and Ga-FAPI-04 to PSMA were measured by a cell-based binding assay using PSMA-expressing LNCaP prostate cancer cells. The nonradioactive Ga-complexed standards, except Ga-FAPI-04, inhibited the binding of [^18F]DCFPyL to LNCaP cells in a dose-dependent manner (Figure 3A).
The PSMA binding assays were conducted following previously published procedures using LNCaP cells and [^18F]DCFPyL as the radioligand [34, 42, 43]. Data analyses of IC50 were performed using the nonlinear regression algorithm of GraphPad Prism 7 (San Diego, CA, USA) software.

recombinant human FAP = target: T2, recombinant human FAP (Homo sapiens, UniProt Q12884); assay: In vitro FAP fluorescence enzyme-inhibition assay (Suc-Gly-Pro-AMC substrate); assay type: biochemical; conditions: n = 3
T2 construct: purchased Biolegend
T2 sequence (Q12884 1-760): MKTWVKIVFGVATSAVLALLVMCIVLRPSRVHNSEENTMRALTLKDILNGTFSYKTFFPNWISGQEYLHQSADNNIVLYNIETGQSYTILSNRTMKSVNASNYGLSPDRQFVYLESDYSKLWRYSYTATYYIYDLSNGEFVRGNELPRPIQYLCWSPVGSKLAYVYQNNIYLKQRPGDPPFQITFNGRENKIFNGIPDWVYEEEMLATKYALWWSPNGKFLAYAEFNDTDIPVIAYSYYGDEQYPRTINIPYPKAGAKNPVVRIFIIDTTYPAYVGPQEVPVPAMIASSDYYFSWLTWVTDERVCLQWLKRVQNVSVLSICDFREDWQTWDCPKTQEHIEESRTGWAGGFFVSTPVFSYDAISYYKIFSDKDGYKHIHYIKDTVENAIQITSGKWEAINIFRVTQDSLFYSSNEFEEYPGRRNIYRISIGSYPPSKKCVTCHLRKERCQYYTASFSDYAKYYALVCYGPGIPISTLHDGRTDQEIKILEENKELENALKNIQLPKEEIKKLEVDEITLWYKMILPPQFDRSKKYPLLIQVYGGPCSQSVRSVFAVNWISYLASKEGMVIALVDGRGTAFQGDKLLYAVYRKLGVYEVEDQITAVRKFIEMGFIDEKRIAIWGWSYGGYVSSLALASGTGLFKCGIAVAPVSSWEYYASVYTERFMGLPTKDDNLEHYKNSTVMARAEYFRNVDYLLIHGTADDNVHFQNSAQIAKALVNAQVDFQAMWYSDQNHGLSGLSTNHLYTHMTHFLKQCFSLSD
Experimental: The binding affinities of Ga-AV01017, Ga-AV01030, Ga-AV01038, Ga-HTK03041, and Ga-FAPI-04 to human FAP were measured by an enzyme-inhibition assay using Suc-Gly-Pro-AMC as the FAP substrate. The human FAP enzymatic activity on the substrate was inhibited by Ga-complexed standards in a dose-dependent manner (Figure 3B).
The half maximal inhibitory concentration (IC50) values of the tested compounds for FAP were measured by in vitro enzymatic assay. The recombinant human FAP (Biolegend; 0.2 µg/mL, 50 µL) was added into a costar 96-well plate. PBS and varied concentrations (0.2 pM to 2 µM) of tested nonradioactive Ga-complexed standards were added to each well (in duplicate) containing the recombinant human FAP. After being incubated for 30 min at 37 °C, 50 µL of Suc-Gly-Pro-AMC (2 µM, Bachem) was added to each well. The fluorescent signals were acquired at 15, 30, 45, and 60 min using a FlexStation 3 Multi-Mode Microplate Reader with excitation at 380 nm and emission at 460 nm. The IC50(FAP) was calculated using a “nonlinear fit model” built-in model in GraphPad Prism 7.02 software

[1] = system: PSMA-expressing LNCaP tumor xenografts; assay: Ex vivo biodistribution in LNCaP tumor-bearing mice; conditions: 1 h post injection, range over LNCaP and HEK293T:hFAP tumor-bearing mice
Experimental: Biodistribution studies were conducted at 1 h post injection with ^68Ga-labeled AV01017, AV01030, AV01038, HTK03041, and FAPI-04 in LNCaP tumor-bearing mice (Figure 5 and Table S4, Supplementary Materials). The results were consistent with the observation from their PET images. Tumor uptake values for [^68Ga]Ga-AV01017, [^68Ga]Ga-AV01030, [^68Ga]Ga-AV01038, [^68Ga]Ga-HTK03041, and [^68Ga]Ga-FAPI-04 were 4.38 ± 0.55, 5.17 ± 0.51, 4.25 ± 0.86, 23.1 ± 6.11, and 3.15 ± 1.43 %ID/g, respectively. […] Although not statistically significant, the bispecific tracers with a longer linker tend to have a higher blood uptake value (9.24 ± 1.55 %ID/g for [^68Ga]Ga-AV01017; 7.07 ± 0.31%ID/g for [^68Ga]Ga-AV01038; 5.75 ± 0.59 %ID/g for [^68Ga]Ga-AV01030) and a lower tumor-to-blood ratio (0.48 ± 0.11 for [^68Ga]Ga-AV01017; 0.60 ± 0.13 for [^68Ga]Ga-AV01038; 0.89 ± 0.03 for [^68Ga]Ga-AV01030).
(§1) Imaging and biodistribution studies were performed using male NOD.Cg-Rag1tm1Mom Il2rgtm1Wjl/SzJ (NRG) mice following previously published procedures. The experiments were conducted according to the guidelines established by the Canadian Council on Animal Care and approved by Animal Ethics Committee of the University of British Columbia. The mice were briefly sedated by inhalation of 2.5% isoflurane in oxygen, and 100 µL LNCaP (2 × 10^5 cells) or HEK293T:hFAP (8.5 × 10^6 cells) cells were inoculated subcutaneously behind the left shoulder. When the tumor grew to 5–8 mm in diameter over 3–4 weeks and 4–5 weeks for HEK293T:hFAP and LNCaP tumors, respectively, the mice were used for PET/CT imaging and biodistribution studies.
(§2) For biodistribution studies, the mice were injected with the radiotracer (~2–4 MBq) as described above. At 1 h post injection, the mice were euthanized by CO2 inhalation. Blood was withdrawn by cardiac puncture, and organs/tissues of interest were collected, weighed, and counted using a Perkin Elmer (Waltham, MA, USA) Wizard2 2480 automatic gamma counter.

[2] = system: FAP-expressing HEK293T:hFAP tumor xenografts; assay: Ex vivo biodistribution in HEK293T:hFAP tumor-bearing mice; conditions: 1 h post injection, mean ± SD, n = 4
Experimental: Biodistribution studies were also conducted at 1 h post injection with [^68Ga]Ga-AV01017, [^68Ga]Ga-AV01030, [^68Ga]Ga-AV01038, [^68Ga]Ga-HTK03041, and [^68Ga]Ga-FAPI-04 in HEK293T:hFAP tumor-bearing mice (Figure 6 and Table S5, Supplementary Materials). Tumor uptake values for [^68Ga]Ga-AV01017, [^68Ga]Ga-AV01030, [^68Ga]Ga-AV01038, [^68Ga]Ga-HTK03041, and [^68Ga]Ga-FAPI-04 were 2.99 ± 0.37, 3.69 ± 0.81, 3.64 ± 0.83, 0.62 ± 0.19, and 12.5 ± 2.00 %ID/g, respectively. There was a very low tumor uptake in mice injected with [^68Ga]Ga-HTK03041, showing very minimal FAP expression in this tumor model. The uptake levels of these tracers on the major organs and tissues are consistent with the trends observed in the LNCaP tumor-baring mice (Figure 5 and Supplemental Table S4).
as §1, §2

[3] = system: PSMA-expressing LNCaP tumor xenografts; design: method as in earlier work; conditions: LNCaP tumor-bearing mice, 1 h post injection, reported previously, ref 4 (supplement); cited from earlier work

T1 sequence (Q04609 whole entry): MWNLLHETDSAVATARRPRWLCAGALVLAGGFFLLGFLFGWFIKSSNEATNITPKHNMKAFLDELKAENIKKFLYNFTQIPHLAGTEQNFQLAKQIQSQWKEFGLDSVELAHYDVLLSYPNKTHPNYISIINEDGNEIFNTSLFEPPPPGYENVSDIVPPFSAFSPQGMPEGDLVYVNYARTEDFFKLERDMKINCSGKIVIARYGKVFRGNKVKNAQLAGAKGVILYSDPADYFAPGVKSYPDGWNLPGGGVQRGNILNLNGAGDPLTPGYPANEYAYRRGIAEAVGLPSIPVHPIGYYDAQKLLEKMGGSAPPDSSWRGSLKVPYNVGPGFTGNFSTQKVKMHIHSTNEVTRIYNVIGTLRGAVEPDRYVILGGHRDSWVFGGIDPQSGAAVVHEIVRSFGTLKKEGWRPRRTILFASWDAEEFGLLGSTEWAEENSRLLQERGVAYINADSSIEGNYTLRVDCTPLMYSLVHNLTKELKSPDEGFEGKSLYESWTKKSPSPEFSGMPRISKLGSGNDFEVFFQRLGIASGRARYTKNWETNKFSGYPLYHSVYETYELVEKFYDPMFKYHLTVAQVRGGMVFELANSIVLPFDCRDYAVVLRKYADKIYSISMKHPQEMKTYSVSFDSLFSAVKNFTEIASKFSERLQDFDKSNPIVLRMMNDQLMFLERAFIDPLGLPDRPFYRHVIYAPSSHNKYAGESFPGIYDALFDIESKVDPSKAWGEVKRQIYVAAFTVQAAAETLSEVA

SMILES: N#C[C@@H]1CC(F)(F)CN1C(=O)CNC(=O)c1ccnc2ccc(OCCCN3CCN(C(=O)CN4CCN(CC(=O)[O-])CCN(CC(=O)[O-])CCN(CC(=O)[O-])CC4)CC3)cc12.[Ga+3] [Ga-FAPI-04, reference compound]
IC50 (PSMA): > 1 µM

SMILES: O=C([O-])CN1CCN(CC(=O)[O-])CCN(CC(=O)NC[C@H]2CC[C@H](C(=O)N[C@@H](Cc3c4ccccc4cc4ccccc34)C(=O)NCCCC[C@H](NC(=O)N[C@@H](CCC(=O)O)C(=O)O)C(=O)O)CC2)CCN(CC(=O)[O-])CC1.[Ga+3] [Ga-HTK03041, reference compound]
IC50 (PSMA): 0.00076 ± 0.00012 µM | IC50 (recombinant human FAP): 2.01 ± 0.585 µM

SMILES: O=C([O-])CN1CCN(CC(=O)[O-])CCN(CC(=O)NC[C@H]2CC[C@H](C(=O)N[C@@H](Cc3c4ccccc4cc4ccccc34)C(=O)NCCCC[C@H](NC(=O)N[C@@H](CCC(=O)O)C(=O)O)C(=O)O)CC2)CCN(CC(=O)[O-])CC1.[68Ga+3] [[^68Ga]Ga-HTK03041, reference compound]
Adrenal glands uptake [2]: 4.18 ± 0.48 %ID/g | Blood uptake [2]: 0.71 ± 0.07 %ID/g | Bone uptake [2]: 0.42 ± 0.11 %ID/g | Brain uptake [2]: 0.03 ± 0.00 %ID/g | Fat uptake [2]: 0.55 ± 0.12 %ID/g | HEK293T:hFAP tumor uptake [2]: 0.62 ± 0.19 %ID/g | Heart uptake [2]: 0.98 ± 0.07 %ID/g | Kidneys uptake [2]: 68.4 ± 19.2 %ID/g | Lacrimal gland uptake [2]: 0.25 ± 0.33 %ID/g | Large Intestine uptake [2]: 0.43 ± 0.04 %ID/g | Liver uptake [2]: 0.72 ± 0.06 %ID/g | Lungs uptake [2]: 2.43 ± 0.08 %ID/g | Muscle uptake [2]: 0.47 ± 0.03 %ID/g | Pancreas uptake [2]: 0.71 ± 0.07 %ID/g | Salivary glands uptake [2]: 2.29 ± 0.16 %ID/g | Seminal vesicle uptake [2]: 0.32 ± 0.03 %ID/g | Small Intestine uptake [2]: 0.71 ± 0.01 %ID/g | Spleen uptake [2]: 8.09 ± 2.37 %ID/g | Stomach uptake [2]: 0.22 ± 0.04 %ID/g | Testes uptake [2]: 0.60 ± 0.41 %ID/g | Thyroid uptake [2]: 1.38 ± 0.10 %ID/g | Tumor/blood uptake ratio [2]: 0.83 ± 0.54 | Tumor/bone uptake ratio [2]: 1.39 ± 0.58 | Tumor/kidney uptake ratio [2]: 0.01 ± 0.01 | Tumor/muscle uptake ratio [2]: 1.22 ± 0.73 | Blood uptake [3]: 1.43 ± 0.30 %ID/g | Bone uptake [3]: 1.29 ± 0.45 %ID/g | Brain uptake [3]: 0.10 ± 0.05 %ID/g | Fat uptake [3]: 2.06 ± 0.59 %ID/g | Heart uptake [3]: 1.82 ± 0.62 %ID/g | Kidneys uptake [3]: 170 ± 26.4 %ID/g | LNCaP tumor uptake [3]: 23.1 ± 6.11 %ID/g | Liver uptake [3]: 1.38 ± 0.25 %ID/g | Muscle uptake [3]: 0.75 ± 0.09 %ID/g | Pancreas uptake [3]: 1.47 ± 0.16 %ID/g | Small Intestine uptake [3]: 1.14 ± 0.18 %ID/g | Spleen uptake [3]: 8.95 ± 3.22 %ID/g | Stomach uptake [3]: 0.41 ± 0.11 %ID/g | Testes uptake [3]: 1.34 ± 0.22 %ID/g | Thyroid uptake [3]: 2.48 ± 0.44 %ID/g | Tumor/blood uptake ratio [3]: 17.3 ± 7.24 | Tumor/bone uptake ratio [3]: 20.1 ± 9.48 | Tumor/kidney uptake ratio [3]: 0.14 ± 0.04 | Tumor/muscle uptake ratio [3]: 31.6 ± 12.1

The next lines start with the values.

IC50 (PSMA): 0.0252 ± 0.0107 µM | IC50 (recombinant human FAP): 0.00125 ± 0.00039 µM | Blood uptake values (range over both tumor models) [1]: 9.24–11.9 %ID/g
SMILES: N#C[C@@H]1CC(F)(F)CN1C(=O)CNC(=O)c1ccnc2ccc(OCCCc3cn(CC(=O)N[C@@H](CCCCNC(=O)CN4CCN(CC(=O)[O-])CCN(CC(=O)[O-])CCN(CC(=O)[O-])CC4)C(=O)NCC(=O)NC[C@H]4CC[C@H](C(=O)N[C@@H](Cc5c6ccccc6cc6ccccc56)C(=O)NCCCC[C@H](NC(=O)N[C@@H](CCC(=O)O)C(=O)O)C(=O)O)CC4)nn3)cc12.[Ga+3] [Ga-AV01017]

IC50 (PSMA): 0.0716 ± 0.023 µM | IC50 (recombinant human FAP): 0.00274 ± 0.00033 µM | Blood uptake values (range over both tumor models) [1]: 5.68–5.75 %ID/g
SMILES: N#C[C@@H]1CC(F)(F)CN1C(=O)CNC(=O)c1ccnc2ccc(-c3cn(CC(=O)N[C@@H](CCCCNC(=O)CN4CCN(CC(=O)[O-])CCN(CC(=O)[O-])CCN(CC(=O)[O-])CC4)C(=O)NCC(=O)NC[C@H]4CC[C@H](C(=O)N[C@@H](Cc5c6ccccc6cc6ccccc56)C(=O)NCCCC[C@H](NC(=O)N[C@@H](CCC(=O)O)C(=O)O)C(=O)O)CC4)nn3)cc12.[Ga+3] [Ga-AV01030]

IC50 (PSMA): 0.0294 ± 0.0252 µM | IC50 (recombinant human FAP): 0.00231 ± 0.00013 µM | Blood uptake values (range over both tumor models) [1]: 7.07–7.45 %ID/g
SMILES: N#C[C@@H]1CC(F)(F)CN1C(=O)CNC(=O)c1ccnc2ccc(OCc3cn(CC(=O)N[C@@H](CCCCNC(=O)CN4CCN(CC(=O)[O-])CCN(CC(=O)[O-])CCN(CC(=O)[O-])CC4)C(=O)NCC(=O)NC[C@H]4CC[C@H](C(=O)N[C@@H](Cc5c6ccccc6cc6ccccc56)C(=O)NCCCC[C@H](NC(=O)N[C@@H](CCC(=O)O)C(=O)O)C(=O)O)CC4)nn3)cc12.[Ga+3] [Ga-AV01038]
